Source: patent publication US20110295343A1, “NEAR-INFRARED ELECTROMAGNETIC MODIFICATION OF CELLULAR STEADY-STATE MEMBRANE POTENTIALS” (priority 2008, published 2011)
Values joined by “and” are separate entries in the source; they are usually repeats but may differ in a detail not shown here. Equal values may be shown once.

Tests used:
MRSA in the nares = experiment: Nasal colonization human study Part One, quantitative swab cultures, MRSA; type: in vivo, S. aureus; conditions: for MRSA Average: laser w/ drug arm, one line per patient
Method: (§1) This investigational protocol was an open-label study of subjects who are colonized with MRSA in the nares (nostril). The study was done in two parts.
(§2) In this human study, three arms were produced. […] This was done on day 1 and again on day three; and Arm #3: ⅓ of the subjects were treated with the laser and then a topical antibiotic three times a day for five days. Prior to enrollment in this study, prospective subjects met all of the following criteria: age≧18 years and ≦70 years of age; previous positive MRSA culture; negative urine pregnancy test or post-menopausal for one year; willing to comply with study requirements, including return visits and self-application of topical antibiotics; and willing to provide informed consent to participate. Prospective subjects were excluded from this study if any of the following criteria were met: pregnancy; patients who are severely immunocompromised (such as may occur in AIDS, renal transplant regimens, immunosuppressed states consequent to malignancy or agents used in rendering oncologic care, or who suffer from end stage renal disease); diabetic patients; allergy to antimicrobials being used in the study (group 3).
(§3) All participants underwent an initial quantitative assessment for nasal carriage of S. aureus, during their first visit. Each participant had the anterior nares (each nostril) sampled for culture with a circular movement (three rotations on each side) of a sterile wood applicator plain Rayon® tipped swab in each nostril and placed in a labled tube. 2 ml of room temp phosphate buffered saline was placed in the tube after the removal of the swab (to completely cover the swab in the tube). Each swab was then placed back in the tube and the tube was then vortexed for 15 seconds to disperse isolates of MRSA and/or MSSA into the PBS solution. Aliquots of PBS from the tube were plated in the following manner: 100 μl from each tube was lawn plated in triplicate (3×) on selective Chromogenic MRSA And MSSA agar. Plates were placed in incubator within 30 minutes of the plating procedure, and colonies were counted manually, and recorded 18 hrs after plating.
(§4) On day one of the study, all subjects underwent this exact procedure in arms 1 and 2 of the study two minutes before the laser procedure. They again were sampled in the same manner 2 minutes after the laser procedure. In the third arm of the study, they were swabbed two minutes before the procedure and the first antibiotic administration was completed after the laser therapy. The post/laser swab sample was taken for this arm 20 min later.
(§5) On day three of the study, all subjects from arms one two and three underwent the exact same procedures as day 1 of the study.
(§6) On day five all subjects from all arms underwent just one swabbing per nostril with the exact same sampling procedure one time.
(§7) Application of H202: 3% OTC hydrogen peroxide was applied to a cotton pledget for application to the subject prior to irradiation. This was inserted in the nose for 120 seconds and then removed. The subjects were then given doses of phototherapeutic near infrared radiation as described. Application of generic topical Antimicrobial: The subjects were first given doses of phototherapeutic near infrared radiation as described. […] The swab was inserted approximately 1 cm in to the anterior nares and rotated 360 degrees several times and removed. Patients were instructed to perform the exact application procedure 3 times a day for the remaining 5 days.
(§8) The NOVEON™ laser was used for two (2) six-minute treatments in each nostril on day (1) and day (3) of the study.
(§9) The laser was calibrated before the first treatment of the day. Intermittent temperature testing of the treatment site was performed on each subject using a noncontact infrared thermometer (Raytek Minitemp), 30-60 second intervals.

MRSA = experiment: CFU counts of MRSA plated on agar with antibiotic after sub-lethal NIMELS laser (Examples IX-XII); type: cell-based, Staphylococcus aureus; conditions: for MRSA colony count, EXPERIMENTAL: sub-lethal NIMELS laser
Excerpt: The following parameters illustrate the general bacterial methods according to the invention as applied to MRSA for the in vitro Experiments V and VIII-XII.
The null hypothesis is μ1−μ2=0 and μ1−μ3=0 where:
a) μ1 is sub-lethal dosimetry from the NIMEL laser system on MRSA as a control and;
The null hypothesis is μ1−μ2=0 and μ1−μ3=0 where: • a) μ1 is sub-lethal dosimetry from the NIMEL laser system on MRSA as a control and; • b)μ2 is the same sub-lethal dosimetry from the NIMEL laser system on MRSA with the addition of tetracycline at resistant MIC just below effectiveness level and; • c) μ3 is the same sub-lethal dosimetry from the NIMEL laser system on MRSA with the addition of rifampin at resistant MIC just below effectiveness level.
The null hypothesis is μ1−μ2=0 and μ1−μ3=0 where: a) μ1 is sub-lethal dosimetry from the NIMEL laser system on MRSA as a control and; b)μ2 is the same sub-lethal dosimetry from the NIMEL laser system on MRSA with the addition of methicillin at resistant MIC just below effectiveness level and; […]

MSSA in the nares = experiment: Nasal colonization human study Part One, quantitative swab cultures, MSSA; type: in vivo, S. aureus; conditions: laser w/ drug arm, one line per patient
Method: as §1, §2, §3, §4, §5, §6, §7, §8, §9

[1] = Initial Analysis, Post-treatment swab, left nostril
[2] = Initial Analysis, Post-treatment swab, right nostril
[3] = Initial Analysis, Pre swab (baseline), left nostril, mean of triplicate plates
[4] = Initial Analysis, Pre swab (baseline), right nostril
[5] = Second Analysis, Post-treatment swab, left nostril
[6] = Second Analysis, Post-treatment swab, right nostril
[7] = Second Analysis, Pre swab, left nostril
[8] = Second Analysis, Pre swab, right nostril
[9] = Third Analysis, Swab, left nostril
[10] = Third Analysis, Swab, right nostril

With `OO` [H2O2, hydrogen peroxide] the “outcome of Laser plus H2O2 arm on nasal colonization” value (MRSA in the nares; humans, topical 3% H2O2 120 seconds, then laser, day 1 and day 3) was “some transient benefit in some of the patients, but no obvious long-term efficacy”.

In the case of `COc1cc(Cc2cnc(N)nc2N)cc(OC)c1OC` [Trimethoprim], the “MRSA colony count, CONTROL (no laser)” value (MRSA; no laser, agar with trimeth 2 ug/ml, replicates B-4 1 to 5) is reported as 213 and 198 and 240 and 220 and 145 and the “MRSA colony count, EXPERIMENTAL” value (MRSA; agar with trimeth 2 ug/ml, replicates B-4 1 to 5) is reported as 100 and 110 and 125 and 138 and 115.

With `OO` [Peroxide] the “s. aureus Average” value (MSSA in the nares; [1]) was 0 CFU (2×) and 20 CFU and 1 CFU, the “s. aureus Average” value (MSSA in the nares; [2]) was 0 CFU and 506 CFU and 146 CFU and 3272 CFU and the “s. aureus Average” value (MSSA in the nares; [3]) was 1 CFU and 53 CFU and 17 CFU and 124 CFU. For the same compound, the “s. aureus Average” value (MSSA in the nares; [4]) was 0 CFU and 29 CFU and 285 CFU and 3996 CFU, the “s. aureus Average” value (MSSA in the nares; [5]) was 0 CFU (3×) and 10 CFU and the “s. aureus Average” value (MSSA in the nares; [6]) was 0 CFU and 126 CFU and 5 CFU and 3589 CFU. The “s. aureus Average” value (MSSA in the nares; [7]) was 1 CFU and 206 CFU and 4 CFU and 12 CFU, the “s. aureus Average” value (MSSA in the nares; [8]) was 1 CFU and 94 CFU and 257 CFU and 4373 CFU and the “s. aureus Average” value (MSSA in the nares; [9]) was 1 CFU and 868 CFU and 28 CFU and 0 CFU. For the same compound, the “s. aureus Average” value (MSSA in the nares; [10]) was 1 CFU and 586 CFU and 52 CFU and 3493 CFU, the “MRSA Average” value (MRSA in the nares; [1]) was 0 CFU (2×) and 22 CFU and 1 CFU and the “MRSA Average” value (MRSA in the nares; [2]) was 0 CFU (2×) and 455 CFU and 2752 CFU. The “MRSA Average” value (MRSA in the nares; [3]) was 0 CFU (2×) and 63 CFU and 4 CFU, the “MRSA Average” value (MRSA in the nares; [4]) was 0 CFU (2×) and 30 CFU and 4032 CFU and the “MRSA Average” value (MRSA in the nares; [5]) was 0 CFU (3×) and 12 CFU. The “MRSA Average” value (MRSA in the nares; [6]) was 0 CFU (2×) and 114 CFU and 3347 CFU, the “MRSA Average” value (MRSA in the nares; [7]) was 0 CFU (2×) and 180 CFU and 17 CFU and the “MRSA Average” value (MRSA in the nares; [8]) was 0 CFU (2×) and 90 CFU and 3099 CFU. The “MRSA Average” value (MRSA in the nares; [9]) was 0 CFU (3×) and 827 CFU and the “MRSA Average” value (MRSA in the nares; [10]) was 0 CFU (2×) and 563 CFU and 3648 CFU.

For `CO[C@H]1/C=C/O[C@@]2(C)Oc3c(C)c(O)c4c(O)c(c(/C=N/N5CCN(C)CC5)c(O)c4c3C2=O)NC(=O)/C(C)=C\C=C\[C@H](C)[C@H](O)[C@@H](C)[C@@H](O)[C@@H](C)[C@H](OC(C)=O)[C@@H]1C` [Rifampin], the “MRSA colony count, CONTROL” value (MRSA; no laser, agar with rifampin 90 ug/ml, samples E1, E2, E3, 5 replicates each) was 183 and 210 (3×) and 166 and 228 and 188 and 274 and 180 and 240 and 288 and 280 and 290 and 300 and the “MRSA colony count, EXPERIMENTAL” value (MRSA; agar with rifampin 90 ug/ml, samples E1, E2, E3, 5 replicates each) was 280 (2×) and 272 and 320 and 330 and 284 (2×) and 270 and 225 and 200 (2×) and 210 and 378.

`CN(C)[C@@H]1C(O)=C(C(N)=O)C(=O)[C@@]2(O)C(O)=C3C(=O)c4c(O)cccc4[C@@](C)(O)[C@H]3C[C@@H]12` [Tetracycline] was tested, and the “MRSA colony count, CONTROL” value (MRSA; no laser, agar with tetracyc. 4 ug/ml, samples E1, E2, E3, 5 replicates each) was 240 and 256 and 268 and 310 (2×) and 255 and 280 and 283 and 263 and 260 and 368 and 380 and 375 and 390 and the “MRSA colony count, EXPERIMENTAL” value (MRSA; agar with tetracyc. 4 ug/ml, samples E1, E2, E3, 5 replicates each) was 42 (2×) and 18 (2×) and 28 and 27 and 16 and 72 and 67 and 45 and 47 and 74 and 56 and 46 and 48.
